According to US20250333394A1, “Tiparp Inhibitor Compounds” (AbbVie Inc., priority 2024, published 2025):
Read-outs that look alike come from different tables or passages of the source.

Assays:
PARP1 GST = PARP1 GST (Homo sapiens (Human), UniProt P09874); assay: TR-FRET binding assay, PARP1; settings: Probe 2, 2 hours incubation
Protocol: (§1) TR-FRET assays were used to measure the binding of compounds to TIPARP and PARP1, and to characterize biochemical selectivity. Compound stock solutions (10 mM) were serially diluted in 3-fold increments in dimethyl sulfoxide (DMSO). Diluted compounds were dispensed (30 nL) into white ProxiPlate-384-well plates (PerkinElmer, Waltham, MA, USA) using an ECHO® 550 acoustic Labcyte dispenser (Beckman-Coulter Life Sciences, Indianapolis, IN, USA) to achieve a final starting concentration of 30 μM to 0.5 nM in the assay. This was followed by addition of 5 μL of 2× protein/probe mix (Table 2) made in assay buffer (Tris-HCl 50 mM pH 8.0; 5 mM MgCl2; 5 μM ZnCl2; 1 mM DTT (dithiothreitol); 0.15% BSA (bovine serum albumin) (w/v); and 0.01% TritonX-100 (w/v)) at final concentrations listed in Table 2. Subsequently, 5 μL of 2× antibody (Tb-labeled anti-GST antibody, Thermo Fisher Scientific, Waltham, MA, USA) in HEPES buffered saline was added to each well at a final concentration of 1 nM. The samples were then incubated for 2 hours under ambient conditions. Fluorescence was measured and TR-FR ET ratios were determined on an EnVision multimode plate reader (PerkinElmer) using a 520 nanometer (nm) excitation wavelength and collecting fluorescence emission at 495 nm.

DLD-1 BRCA2 (−/−) cells = assay: CellTiter-Glo DLD-1 BRCA2 (−/−) cell assay for PARP1/2 inhibition; assay type: cell-based; settings: 6 days, read-out: DLD-1 BRCA2 (−/−) CTG EC50
Description: (§2) The DLD-1 BRCA2 (−/−) CellTiter-Glo® assay measured the synthetic lethality of PARP1/2 inhibitors and was used as a surrogate to allow measurement of activity of both PARP1 and PARP2 in cells. If PARP1 and PARP2 are inhibited and are trapped onto chromatin during DNA replication, there is replication fork stalling and accumulation of double strand breaks. In BR CA wild-type cells, the resulting double strand DNA breaks are repaired via homologous recombination. In cells with mutation of BRCA1 or BRCA2, homologous recombination repair of DNA double strand breaks is defective, and cell death occurs after PARP1/2 inhibitor treatment (Lord C J, Ashworth A. PARP inhibitors: synthetic lethality in the clinic. Science. 2017 Mar. 17; 355(6330):1152-1158). Testing compounds in viability assays with the DLD-1-BR CA 2 (−/−) and DLD-1 parent cell enabled assessment on PARP1/2-dependent (cytotoxicity in the BRCA2 (−/−) cells only) vs. non-selective cytotoxicity in both cell lines.
(§3) Compound stock solutions (10 mM) were serially diluted in 3-fold increments in dimethyl sulfoxide (DMSO). Sample aliquots (120 nL) were dispensed into Corning® 384-well Flat Clear Bottom White Polystyrene TC-treated Microplates (Corning Life Sciences, Corning, NY, USA) using an ECHO® 550 acoustic Labcyte dispenser (Beckman-Coulter Life Sciences, Indianapolis, IN, USA) to achieve concentrations between 30 μM and 0.5 nM in the assay. In the assay, 40 μL of 500 DLD-1 parent cells (HORIZON® Therapeutics, Deerfield, IL, USA) or 40 μL of 1200 DLD-1-BRCA2 (−/−) cells (HORIZON Therapeutics) in complete growth medium containing RPMI 1640 growth medium (ThermoFisher Scientific, Waltham, MA, USA) supplemented with 20 mg/L L-glutamate, 25 mM HEPES (4-(2-hydroxyethyl)-1-piperazineethanesulfonic acid), 10% (v/v) heat inactivated FBS (fetal bovine serum), and 1% (w/v) Penicillin-Streptomycin were added.
(§4) Duplicate cell plates with 40 μL cells/well along with various concentrations of compounds were kept in Nunc™ Square BioAssay Dishes (Thermo Fisher Scientific) at 98% relative humidity in a 5% CO2 incubator at 37° C. for 6 days. On day 7, plates were moved to ambient lab conditions for 10 minutes until the temperature equilibrated. Following equilibration, CellTiter-Glo® Luminescent Cell Viability Assay reagent (Promega™, Madison, WI, USA) was added (15 μL) to each well of the plates. After a 20 minutes incubation, luminescence was detected using a ViewLux™ microplate imager (PerkinElmer, Waltham, MA, USA). Data analysis was performed using GraphPad Prism (Dotmatics, Boston, MA, USA).

TIPARP GST-(TEV) = TIPARP GST-(TEV) (Homo sapiens (Human), UniProt Q7Z3E1); assay: TR-FRET binding assay, TIPARP; settings: for IC50: TR-FRET, Probe 1, 2 hours incubation; for PARP1/TIPARP IC50 Ratio: ratio of PARP1 GST IC50 to TIPARP GST-(TEV) IC50
TIPARP GST-(TEV), sequence (Q7Z3E1 441-657): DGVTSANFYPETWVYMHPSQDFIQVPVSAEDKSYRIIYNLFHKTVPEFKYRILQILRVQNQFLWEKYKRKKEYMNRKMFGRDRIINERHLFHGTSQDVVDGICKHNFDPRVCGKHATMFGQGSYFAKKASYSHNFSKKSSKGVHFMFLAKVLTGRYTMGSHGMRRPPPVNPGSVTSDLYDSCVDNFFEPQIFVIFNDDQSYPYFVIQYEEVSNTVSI
Description: as §1, with “The full-length cDNA encoding the human TIPARP (NP_001171647.1, UniProtKB-Q7Z3E1) of 657 amino acids was the template to generate the expression construct. […] The TIPARP fusion protein includes GST, glutathione S-transferase, a 26 kDa protein whose DNA sequence is frequently integrated into expression vectors for production of recombinant proteins. A […], was cloned into vector pFastBacTM 1 (Thermo Fisher Scientific) with an N-terminal GST tag followed by a TEV protease site to produce the TIPARP fusion protein, TIPARP GST-(TEV). TR-FRET” for “TR-FRET”, “nm. […] [table]” for “nm.”

NCI-H1373 cells = assay: NCI-H1373 CellTiter-Glo cell assay for TIPARP inhibition; assay type: cell-based, human; settings: 6 days, 100 nM 10-Cl-BBQ in medium, read-out: NCI-H1373 CTG EC50
Protocol: The NCI-H1373 CellTiter-Glo® assay was used to determine cell numbers after TIPARP inhibition-induced cell cycle arrest, and enabled screening of compounds for cellular TIPARP inhibition potency.
Compound stock solutions (10 mM) were serially diluted in 3-fold increments in dimethyl sulfoxide. Sample aliquots (120 nL) were dispensed into Corning® 384-well Flat Clear Bottom White Polystyrene TC-treated Microplates (Corning Life Sciences, Corning, NY, USA) using an ECHO® 550 acoustic Labcyte dispenser (Beckman-Coulter Life Sciences, Indianapolis, IN, USA) to achieve final concentrations between 30 μM and 0.5 nM in the assay. This was followed by the addition of 40 μL of 1000 NCI-H1373 cells (ATCC®, Manassas, VA, USA) in complete growth medium RPMI 1640 growth medium (Thermo Fisher Scientific, Waltham, MA, USA) supplemented with 20 mg/L L-glutamate, 25 mM HEPES (4-(2-hydroxyethyl)-1-piperazineethanesulfonic acid), 10% (v/v) heat inactivated FBS (fetal bovine serum), 1% (w/v) penicillin-streptomycin, and 100 nM 10-Cl-BBQ (10-chloro-7H-benzimidazo[2,1-a]benz[de]isoquinolin-7-one, (Tocris, Minneapolis, MN, USA). Duplicate cell plates with 40 μL cells/well along with various concentrations of compounds were kept in Nunc™ Square BioAssay Dishes (Thermo Fisher Scientific) at 98% relative humidity in a 5% C02 incubator at 37° C. for 6 days. On day 7, plates were moved to ambient lab conditions for 10 minutes until the temperature equilibrated. Following equilibration, CellTiter-Glo® Luminescent Cell Viability Assay reagent (Promega™, Madison, WI, USA) was added (15 μL) to each well of the plates. After a 20 minutes incubation, luminescence was detected using a ViewLux™ microplate imager (PerkinElmer, Waltham, MA, USA). Data analysis was performed using GraphPad Prism (Dotmatics, Boston, MA, USA).

DLD-1 parent cells = assay: CellTiter-Glo DLD-1 parent cell assay; assay type: cell-based; settings: 6 days, read-out: DLD-1 CTG EC50
Description: as §2, §3, §4

PARP1 GST, sequence (P09874 whole entry): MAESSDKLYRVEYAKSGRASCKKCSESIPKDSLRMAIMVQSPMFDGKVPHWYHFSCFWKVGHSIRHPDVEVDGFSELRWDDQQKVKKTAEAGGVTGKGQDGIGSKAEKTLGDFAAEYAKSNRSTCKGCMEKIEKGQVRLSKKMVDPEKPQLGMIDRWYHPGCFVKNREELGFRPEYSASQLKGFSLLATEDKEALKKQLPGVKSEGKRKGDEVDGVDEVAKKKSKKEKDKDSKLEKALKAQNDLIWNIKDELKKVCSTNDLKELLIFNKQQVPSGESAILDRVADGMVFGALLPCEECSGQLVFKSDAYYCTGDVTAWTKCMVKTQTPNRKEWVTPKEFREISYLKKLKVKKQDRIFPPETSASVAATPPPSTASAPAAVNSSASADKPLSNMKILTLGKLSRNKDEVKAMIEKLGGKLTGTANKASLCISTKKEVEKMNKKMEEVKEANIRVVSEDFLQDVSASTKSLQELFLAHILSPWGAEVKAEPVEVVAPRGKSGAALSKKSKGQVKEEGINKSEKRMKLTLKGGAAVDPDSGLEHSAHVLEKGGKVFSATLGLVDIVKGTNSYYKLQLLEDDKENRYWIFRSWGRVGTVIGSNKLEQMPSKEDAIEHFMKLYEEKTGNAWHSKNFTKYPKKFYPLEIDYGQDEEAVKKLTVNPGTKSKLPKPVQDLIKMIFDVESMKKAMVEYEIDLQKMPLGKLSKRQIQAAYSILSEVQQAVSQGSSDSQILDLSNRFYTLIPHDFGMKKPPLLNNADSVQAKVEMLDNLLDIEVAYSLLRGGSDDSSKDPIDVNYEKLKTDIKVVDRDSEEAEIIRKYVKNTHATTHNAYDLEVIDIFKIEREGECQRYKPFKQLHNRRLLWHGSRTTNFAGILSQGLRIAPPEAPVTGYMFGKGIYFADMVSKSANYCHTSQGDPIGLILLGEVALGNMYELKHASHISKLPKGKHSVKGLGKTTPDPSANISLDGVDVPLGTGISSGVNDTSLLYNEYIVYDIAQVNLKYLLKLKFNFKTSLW

Structure (SMILES) | IC50 (PARP1 GST) [nM] | EC50 (DLD-1 BRCA2 (−/−) cells; Homo sapiens, 144 h) [nM] | IC50 (TIPARP GST-(TEV)) [nM] | PARP1/TIPARP IC50 Ratio (TIPARP GST-(TEV)) | EC50 (NCI-H1373 cells; Homo sapiens, NCI-H1373, 144 h) [nM] | EC50 (DLD-1 parent cells; Homo sapiens, 144 h) [nM] | EC50 (DLD-1 BRCA2 (−/−) cells) [nM] | EC50 (NCI-H1373 cells) [nM] | EC50 (DLD-1 parent cells) [nM]
C[C@H]1CN(c2ncc(C(C)(C)O)cn2)CCN1C(=O)[C@H]1C[C@@H](Cc2c[nH]c(=O)c(C(F)(F)F)c2)C1 [Example 21, 5-{[(1R,3s)-3-{(2S)-4-[5-(2-hydroxypropan-2-yl)pyrimidin-2-yl]-2-methylpiperazine-1-carbonyl}cyclobutyl]methyl}-3-(trifluoromethyl)pyridin-2(1H)-one] | 331 | 1060 | 12.9 | 25.7 | 160 | > 30000 | – | – | –
C[C@@H]1CN(C(=O)[C@H]2C[C@@H](c3c[nH]c(=O)c(C(F)(F)F)c3)C2)CCN1c1ncc(C(C)(C)O)cn1 [Example 7, 5-[(1S,3s)-3-{(3R)-4-[5-(2-hydroxypropan-2-yl)pyrimidin-2-yl]-3-methylpiperazine-1-carbonyl}cyclobutyl]-3-(trifluoromethyl)pyridin-2(1H)-one] | 1580 | 17200 | 3.79 | 417 | 71.7 | > 30000 | – | – | –
C[C@@H]1CN(c2ncc(C(F)(F)F)cn2)C[C@H](C)N1C(=O)[C@H]1C[C@@H](Cc2c[nH]c(=O)c(C(F)(F)F)c2)C1 [Example 13, 5-{[(1s,3s)-3-{(2R,6S)-2,6-dimethyl-4-[5-(trifluoromethyl)pyrimidin-2-yl]piperazine-1-carbonyl}cyclobutyl]methyl}-3-(trifluoromethyl)pyridin-2(1H)-one] | 7380 | 6960 | 3.79 | 1950 | 33.3 | 11100 | – | – | –
O=c1[nH]cc([C@H]2C[C@@H](C(=O)N3CCN(c4ncc(C(F)(F)F)cn4)CC3)C2)cc1C(F)(F)F [Example 23, 3-(trifluoromethyl)-5-[(1s,3s)-3-{4-[5-(trifluoromethyl)pyrimidin-2-yl]piperazine-1-carbonyl}cyclobutyl]pyridin-2(1H)-one] | 136 | – | 2.74 | 49.6 | – | – | 785 | 44.2 | 13300
C[C@@H]1CN(C(=O)[C@H]2C[C@@H](Cc3c[nH]c(=O)c(C(F)(F)F)c3)C2)C[C@H](C)N1c1ncc(C(F)(F)F)cn1 [Example 14, 5-{[(1s,3s)-3-{(3R,5S)-3,5-dimethyl-4-[5-(trifluoromethyl)pyrimidin-2-yl]piperazine-1-carbonyl}cyclobutyl]methyl}-3-(trifluoromethyl)pyridin-2(1H)-one] | 4110 | 4490 | 2.17 | 1890 | 10.9 | 14300 | – | – | –
C[C@@H]1CN(C(=O)[C@H]2C[C@@H](c3c[nH]c(=O)c(C(F)(F)F)c3)C2)CCN1c1ncc(C(F)(F)F)cn1 [Example 3, 5-[(1S,3s)-3-{(3R)-3-methyl-4-[5-(trifluoromethyl)pyrimidin-2-yl]piperazine-1-carbonyl}cyclobutyl]-3-(trifluoromethyl)pyridin-2(1H)-one] | 504 | 5030 | 4.74 | 106 | 9.65 | > 30000 | – | – | –
O=c1[nH]cc([C@H]2C[C@H](C(=O)N3CCN(c4ncc(C(F)(F)F)cn4)CC3)C2)cc1C(F)(F)F [Example 26, 3-(trifluoromethyl)-5-[(1r,3r)-3-{4-[5-(trifluoromethyl)pyrimidin-2-yl]piperazine-1-carbonyl}cyclobutyl]pyridin-2(1H)-one] | 1280 | – | 1620 | 0.790 | – | – | > 30000 | 9100 | > 30000
